US4011238A, “2-Imidazolidione derivatives” (Gruppo Lepetit S.p.A., priority 1972, dated 1977)
Read-outs that look alike come from different tables or passages of the source.

Legend:
[1] = system: primary conditioned response; assay: CR: inhibition of the primary conditioned response; format: in vivo, rat; settings: ip, read-out: CR (ED50)
Procedure: (§1) The symbols CR and CR2 relate, respectively, to the tests of inhibition of the primary and secondary conditioned response according to the method of L. Cook et al., Ann. […] The inhibition of apomorphine emesis test in the dog is carried out according to the method of G. Chen. et al., J. Pharm. Exptl.

conditioned behavior = assay: conditioned behavior; format: in vivo, rat; settings: in comparison with chlorpromazine, in words
Procedure: as §1

[2] = system: secondary conditioned response; assay: CR2: inhibition of the secondary conditioned response; format: in vivo, rat; settings: ip, read-out: CR2 (ED50)
Procedure: as §1

[3] = acute toxicity (LD50), rat i.p.; settings: in vivo, ip
Apomorphine emesis = assay: inhibition of apomorphine emesis test in the dog; format: in vivo; settings: for ED50: Canis lupus familiaris, ip, read-out: Apomorphine emesis (ED50)
Procedure: as §1

cardiovascular system = assay: side effects on the cardiovascular system; format: in vivo; settings: in comparison with chlorpromazine; at a dose level 5 to 10 times higher than that of chlorpromazine
[4] = rat, i.p., primary conditioned response
[5] = rat, i.p., secondary conditioned response

Compound | ED50 [1, 4] [mg/kg] | activity on the conditioned behavior (conditioned behavior) | ED50 [2, 5] [mg/kg] | LD50 [3] [mg/kg] | ED50 (Apomorphine emesis; dog, i.p.) [mg/kg] | anti-emetic effect (Apomorphine emesis; in comparison with chlorpromazine, in words) | side effects on the cardiovascular system (cardiovascular system) | ED50 ([1]; Rattus norvegicus) [mg/kg] | ED50 ([2]; Rattus norvegicus) [mg/kg] | ED50 (Apomorphine emesis) [mg/kg]
CC1(C)CN(CCN2CCN(c3cccc(Cl)c3)C2=O)C1 [A, 1-(m-chlorophenyl)-3-[2-(3,3-dimethylazetidin-1-yl)ethyl]-2-imidazolidinone] | 0.5 | more specific activity on the conditioned behavior | 0.25 | 200 | < 0.05 | more potent anti-emetic effect | much lower side effects on the cardiovascular system | – | – | –
CN(C)CCN1CCN(c2cccc(Cl)c2)C1=O [Imidoline, 1-(m-chlorophenyl)-3-(2-dimethylaminoethyl)-2-imidazolidinone] | 5 to 10 | – | 2.5 | 200 | 0.25 | – | – | – | – | –
CN(C)CCCN1c2ccccc2Sc2ccc(Cl)cc21 [CPZ, chlorpromazine] | – | – | – | 120 | – | – | – | 3.95 | 0.96 | 1
